US20150105252A1, “SUBSTITUTED PYRAZOLES AS HERBICIDES” (E I DU PONT DE NEMOURS AND COMPANY, priority 2013, published 2015)

Tests used:
bluegrass = assay: Test D preemergence; assay type: in vivo, Poa annua; conditions: for Plant response rating, Bluegrass: Preemergence, scale 0 to 100
Text: (§1) Seeds of plant species selected from bluegrass (annual bluegrass, Poa annua), blackgrass (Alopecurus myosuroides), canarygrass (littleseed canarygrass, Phalaris minor), chickweed (common chickweed, Stellaria media), galium (catchweed bedstraw, Galium aparine), bromegrass, downy (downy bromegrass, Bromus tectorum), field poppy (Papaver rhoeas), field violet (Viola arvensis), foxtail, green (green foxtail, Setaria viridis), deadnettle (henbit deadnettle, Lamium amplexicaule), ryegrass, Italian (Italian ryegrass, Lolium multiflorum), kochia (Kochia scoparia), lambsquarters (Chenopodium album), oilseed rape (Brassica napus), pigweed (redroot pigweed, Amaranthus retroflexus), chamomile (scentless chamomile, Matricaria inodora), speedwell (bird's-eye speedwell, Veronica persica), barley, spring (spring barley, Hordeum vulgare), wheat, spring (spring wheat, Triticum aestivum), buckwheat, wild (wild buckwheat, Polygonum convolvulus), mustard, wild (wild mustard, Sinapis arvensis), oat, wild (wild oat, Avena fatua), radish, wild (wild radish, Raphanus raphanistrum), windgrass (Apera spica-venti), Russian thistle (Salsola kali), barley, winter (winter barley, Hordeum vulgare), and wheat, winter (winter wheat, Triticum aestivum) were planted into a silt loam soil and treated preemergence with test chemicals formulated in a non-phytotoxic solvent mixture which included a surfactant.
(§2) At the same time, these species were planted in pots containing Redi-Earth® planting medium (Scotts Company, 14111 Scottslawn Road, Marysville, Ohio 43041) comprising spaghnum peat moss, vermiculite, wetting agent and starter nutrients and treated with postemergence applications of the test chemicals formulated in the same manner. Plants ranged in height from 2 to 18 cm (1- to 4-leaf stage). Treated plants and controls were maintained in a controlled growth environment for 14 to 21 days after which time all species were compared to controls and visually evaluated. Plant response ratings, summarized in Table D, are based on a scale of 0 to 100 where 0 is no effect and 100 is complete control. A dash (-) response means no test result.

canarygrass [1] = assay: Test D preemergence; assay type: in vivo, Phalaris minor; conditions: for Plant response rating, Canarygrass: Preemergence, scale 0 to 100
Text: as §1, §2

lambsquarters = assay: Test D preemergence; assay type: in vivo, Chenopodium album; conditions: for Plant response rating, Lambsquarters: Preemergence, scale 0 to 100
Text: as §1, §2

oilseed rape = assay: Test D preemergence; assay type: in vivo, Brassica napus; conditions: for Plant response rating, Oilseed Rape: Preemergence, scale 0 to 100
Text: as §1, §2

chamomile [2] = assay: Test D preemergence; assay type: in vivo, Matricaria inodora; conditions: for Plant response rating, Chamomile: Preemergence, scale 0 to 100
Text: as §1, §2

speedwell [3] = assay: Test D preemergence; assay type: in vivo, Veronica persica; conditions: for Plant response rating, Speedwell: Preemergence, scale 0 to 100
Text: as §1, §2

wheat, spring = assay: Test D preemergence; assay type: in vivo, Triticum aestivum; conditions: for Plant response rating, Wheat, Spring: Preemergence, scale 0 to 100
Text: as §1, §2

wheat, winter = assay: Test D preemergence; assay type: in vivo, Triticum aestivum; conditions: for Plant response rating, Wheat, Winter: Preemergence, scale 0 to 100
Text: as §1, §2

oat, wild [4] = assay: Test D preemergence; assay type: in vivo, Avena fatua; conditions: for Plant response rating, Oat, Wild: Preemergence, scale 0 to 100
Text: as §1, §2

blackgrass = assay: Test D postemergence; assay type: in vivo, Alopecurus myosuroides; conditions: scale 0 to 100
Text: as §1, §2

canarygrass [5] = assay: Test D postemergence; assay type: in vivo, Phalaris minor; conditions: scale 0 to 100
Text: as §1, §2

field violet = assay: Test D postemergence; assay type: in vivo, Viola arvensis; conditions: scale 0 to 100
Text: as §1, §2

chamomile [6] = assay: Test D postemergence; assay type: in vivo, Matricaria inodora; conditions: scale 0 to 100
Text: as §1, §2

speedwell [7] = assay: Test D postemergence; assay type: in vivo, Veronica persica; conditions: scale 0 to 100
Text: as §1, §2

barley, spring = assay: Test D postemergence; assay type: in vivo, Hordeum vulgare; conditions: scale 0 to 100
Text: as §1, §2

barley, winter = assay: Test D postemergence; assay type: in vivo, Hordeum vulgare; conditions: scale 0 to 100
Text: as §1, §2

mustard, wild = assay: Test D postemergence; assay type: in vivo, Sinapis arvensis; conditions: scale 0 to 100
Text: as §1, §2

oat, wild [8] = assay: Test D postemergence; assay type: in vivo, Avena fatua; conditions: scale 0 to 100
Text: as §1, §2

windgrass = assay: Test D postemergence; assay type: in vivo, Apera spica-venti; conditions: scale 0 to 100
Text: as §1, §2

[9] = 16 g ai/ha, taken as preemergence

Cc1cc(C(=O)NCC(F)(F)F)nn1Cc1ccnc(C(F)(F)F)c1 [Compound 74]
Plant response rating (scale 0 to 100), Bluegrass (bluegrass; [9]): 0
Plant response rating, Bluegrass (bluegrass; 31 g ai/ha): 0
Plant response rating, Bluegrass (bluegrass; 62 g ai/ha): 0
Plant response rating, Bluegrass (bluegrass; 125 g ai/ha): 5
Plant response rating (scale 0 to 100), Canarygrass (canarygrass [1]; [9]): 0
Plant response rating, Canarygrass (canarygrass [1]; 31 g ai/ha): 0
Plant response rating, Canarygrass (canarygrass [1]; 62 g ai/ha): 0
Plant response rating, Canarygrass (canarygrass [1]; 125 g ai/ha): 5
Plant response rating (scale 0 to 100), Lambsquarters (lambsquarters; [9]): 20
Plant response rating, Lambsquarters (lambsquarters; 31 g ai/ha): 50
Plant response rating, Lambsquarters (lambsquarters; 62 g ai/ha): 20
Plant response rating, Lambsquarters (lambsquarters; 125 g ai/ha): 85
Plant response rating (scale 0 to 100), Oilseed Rape (oilseed rape; [9]): 5
Plant response rating, Oilseed Rape (oilseed rape; 31 g ai/ha): 15
Plant response rating, Oilseed Rape (oilseed rape; 62 g ai/ha): 40
Plant response rating, Oilseed Rape (oilseed rape; 125 g ai/ha): 45
Plant response rating (scale 0 to 100), Chamomile (chamomile [2]; [9]): 20
Plant response rating, Chamomile (chamomile [2]; 31 g ai/ha): 60
Plant response rating, Chamomile (chamomile [2]; 62 g ai/ha): 80
Plant response rating, Chamomile (chamomile [2]; 125 g ai/ha): 90
Plant response rating (scale 0 to 100), Speedwell (speedwell [3]; [9]): 100
Plant response rating, Speedwell (speedwell [3]; 31 g ai/ha): 100
Plant response rating, Speedwell (speedwell [3]; 62 g ai/ha): 100
Plant response rating, Speedwell (speedwell [3]; 125 g ai/ha): 100
Plant response rating (scale 0 to 100), Wheat, Spring (wheat, spring; [9]): 0
Plant response rating, Wheat, Spring (wheat, spring; 31 g ai/ha): 0
Plant response rating, Wheat, Spring (wheat, spring; 62 g ai/ha): 0
Plant response rating, Wheat, Spring (wheat, spring; 125 g ai/ha): 0
Plant response rating (scale 0 to 100), Wheat, Winter (wheat, winter; [9]): 0
Plant response rating, Wheat, Winter (wheat, winter; 31 g ai/ha): 0
Plant response rating, Wheat, Winter (wheat, winter; 62 g ai/ha): 0
Plant response rating, Wheat, Winter (wheat, winter; 125 g ai/ha): 5
Plant response rating (scale 0 to 100), Oat, Wild (oat, wild [4]; [9]): 20
Plant response rating, Oat, Wild (oat, wild [4]; 31 g ai/ha): 10
Plant response rating, Oat, Wild (oat, wild [4]; 62 g ai/ha): 10
Plant response rating, Oat, Wild (oat, wild [4]; 125 g ai/ha): 30
Plant response rating, Blackgrass (blackgrass; Postemergence, 16 g ai/ha): 0
Blackgrass plant response rating (blackgrass; Postemergence, 31 g ai/ha): 0
Blackgrass plant response rating (blackgrass; Postemergence, 125 g ai/ha): 0
Blackgrass plant response rating (blackgrass; postemergence, 62 g ai/ha): 5
Plant response rating, Canarygrass (canarygrass [5]; Postemergence, 16 g ai/ha): 0
Canarygrass plant response rating (canarygrass [5]; Postemergence, 31 g ai/ha): 0
Canarygrass plant response rating (canarygrass [5]; Postemergence, 125 g ai/ha): 0
Canarygrass plant response rating (canarygrass [5]; postemergence, 62 g ai/ha): 0
Plant response rating, Field Violet (field violet; Postemergence, 16 g ai/ha): 25
Field Violet plant response rating (field violet; Postemergence, 31 g ai/ha): 30
Field Violet plant response rating (field violet; Postemergence, 125 g ai/ha): 50
Field Violet plant response rating (field violet; postemergence, 62 g ai/ha): 60
Plant response rating, Chamomile (chamomile [6]; Postemergence, 16 g ai/ha): 15
Chamomile plant response rating (chamomile [6]; Postemergence, 31 g ai/ha): 15
Chamomile plant response rating (chamomile [6]; Postemergence, 125 g ai/ha): 50
Chamomile plant response rating (chamomile [6]; postemergence, 62 g ai/ha): 20
Plant response rating, Speedwell (speedwell [7]; Postemergence, 16 g ai/ha): 75
Speedwell plant response rating (speedwell [7]; Postemergence, 31 g ai/ha): 60
Speedwell plant response rating (speedwell [7]; Postemergence, 125 g ai/ha): 75
Speedwell plant response rating (speedwell [7]; postemergence, 62 g ai/ha): 70
Barley, Spring plant response rating (barley, spring; Postemergence, 16 g ai/ha): 0
Barley, Spring plant response rating (barley, spring; Postemergence, 31 g ai/ha): 0
Barley, Spring plant response rating (barley, spring; Postemergence, 125 g ai/ha): 0
Barley, Spring plant response rating (barley, spring; postemergence, 62 g ai/ha): 0
Barley, Winter plant response rating (barley, winter; Postemergence, 16 g ai/ha): 0
Barley, Winter plant response rating (barley, winter; Postemergence, 31 g ai/ha): 0
Barley, Winter plant response rating (barley, winter; Postemergence, 125 g ai/ha): 5
Barley, Winter plant response rating (barley, winter; postemergence, 62 g ai/ha): 0
Plant response rating, Mustard, Wild (mustard, wild; Postemergence, 16 g ai/ha): 20
Mustard, Wild plant response rating (mustard, wild; Postemergence, 31 g ai/ha): 30
Mustard, Wild plant response rating (mustard, wild; Postemergence, 125 g ai/ha): 55
Mustard, Wild plant response rating (mustard, wild; postemergence, 62 g ai/ha): 30
Plant response rating, Oat, Wild (oat, wild [8]; Postemergence, 16 g ai/ha): 0
Oat, Wild plant response rating (oat, wild [8]; Postemergence, 31 g ai/ha): 5
Oat, Wild plant response rating (oat, wild [8]; Postemergence, 125 g ai/ha): 5
Oat, Wild plant response rating (oat, wild [8]; postemergence, 62 g ai/ha): 5
Plant response rating, Windgrass (windgrass; Postemergence, 16 g ai/ha): 0
Windgrass plant response rating (windgrass; Postemergence, 31 g ai/ha): 0
Windgrass plant response rating (windgrass; Postemergence, 125 g ai/ha): 5
Windgrass plant response rating (windgrass; postemergence, 62 g ai/ha): 0
